Measurements: patent US20040219622A1, “Phosphine-containing formulations for chemiluminescent luciferase assays” (priority 2001, published 2004)

How the values were obtained:
Type in all cases: biochemical
[1] = target: T1, firefly luciferase (Photinus pyralis, UniProt P08659); assay: Firefly luciferase reaction with additives TCEP, CoA, DTT alone or combined (Example 3); settings: CoA 0.5 mM, DTT 5 mM, light output then rapidly decreased
Experimental: A common firefly luciferase reaction mix was prepared by combining stock solutions of Tris/Mg buffer, D-luciferin, and ATP. A 600 μl aliquot of this mix consisted of 480 μl of 0.1 M Tris, 10 mM MgCl2, pH 8.0, 85 μl of 10 mM D-luciferin in 0.1 M Tris, pH 8.0, and 17 μl of 50 mM ATP (1889485) in 0.1 M Tris, pH 8.0. Separate aliquots of the reaction mixture were then supplemented with various combinations of additives selected from a 0.5 M TCEP solution, a stock solution of CoA (5 mM CoA in 0.1 M Tris, pH 8.0), or a stock solution of DTT (50 mM DTT in 0.1 M Tris, pH 8.0) and then brought to a final volume of 1 ml with 0.1 M Tris, pH 8.0. In such fashion, the following solutions were obtained: a solution with no additives (None), TCEP (T), TCEP plus CoA (TC), TCEP plus DTT (TD), TCEP plus CoA plus DTT (TCD), CoA (C), CoA plus DTT (CD), and DTT (D or DTT). Where used, the final concentrations of TCEP, CoA, and DTT were 50, 0.5, and 5 mM, respectively. […]
Firefly luciferase was diluted from a stock solution (2 μl of 14.7 mg/ml) with 0.1 M Tris, pH 8.0, containing 2 mg/ml bovine serum albumin. […] The plate was immediately placed into an Orion Luminometer, and light output from the plate wells was measured with sequential plate reading cycles over a one hour time frame, each cycle allowing the wells of the plate to be read with a time interval of approximately 140 seconds.

[2] = target: T1, firefly luciferase; assay: ATP assay with TCEP in firefly luciferin-luciferase reaction (Example 4); settings: 5 mM DTT; 33.3 mM TCEP; 0-500 μM ATP
Experimental: A common solution was prepared by combining stock solutions of Tris/Mg buffer, D-luciferin, and TCEP. A 2.25 ml aliquot of this solution contained 1.2 ml of 0.1 M Tris, 10 mM MgCl2, pH 8.0, 18.75 μl of 10 mM D-luciferin in 0.1 M Tris, pH 8.0, 165 μl of 0.5 M TCEP, with the remaining volume being 0.1 M Tris, pH 8.0. 0.5 ml of this mixture was removed and to it was added 11 μl of an ATP stock solution (50 mM ATP in 0.1 M Tris, pH 8.0) and 39 μl of 0.1 M Tris, pH 8.0; the remaining 1.75 ml of mixture received 175 μl of 0.1 M Tris, pH 8.0. The ATP-containing aliquot was then serially diluted with the non-ATP-containing mixture to yield a final ATP concentration series of 500, 250, 125, 62.5, 31.25, 15.625, and 0 μM. The non-ATP-containing mixture served as the control for zero ATP concentration. In this series of reaction mixtures with varying concentrations of ATP, the final luciferin, magnesium, and TCEP concentrations were 75.8 μM luciferin, 4.8 mM magnesium, and 33.3 mM TCEP. […]
Firefly luciferase was diluted from a stock solution (2 μl of 14.7 mg/ml) with 0.1 M Tris, pH 8.0 containing 2 mg/ml bovine serum albumin. […] The plate was immediately placed into an Orion Luminometer and light output from the wells was measured with sequential plate reading cycles, each cycle allowing the wells of the plate to be read with a time interval of approximately 2.25 minutes. […]

[3] = target: T1, firefly luciferase; assay: TCEP-mediated firefly luciferase reaction with DTT series (Example 5); settings: 33.5 mM TCEP; for signal decrease from first reading cycle to 11 minutes 34 seconds later: no added DTT
Experimental: A common solution was prepared by combining stock solutions of Tris/Mg buffer, D-luciferin, TCEP, and ATP. This solution was prepared by combining 12 ml of 0.1 M Tris, 10 mM MgCl2, pH 8.0, 187.5 μl of 10 mM D-luciferin in 0.1 M Tris, pH 8.0, […] 0.5 M TCEP, and 30 μl of an ATP stock solution (50 mM ATP in 0.1 M Tris, pH 8.0) and 1.02 ml of 0.1 M Tris, pH 8.0. A 150 μl aliquot of this solution was added to 100 μl of 50 mM DTT stock solution (50 mM DTT in 0.1 M Tris, pH 8.0) for a final DTT concentration of 20 mM, and another 1.35 ml aliquot of the solution received 0.9 ml 0.1 M Tris, pH 8.0. The 20 mM DTT reaction solution was further diluted with the second aliquot to give a final DTT concentration series of […], and 0 mM DTT. In this series of reaction mixtures with varying concentrations of DTT, the final luciferin, magnesium, and TCEP concentrations were 75.5 μM luciferin, 4.8 mM magnesium, and 33.5 mM TCEP and 238 μM ATP. Other reaction mixtures with varying DTT concentrations were also prepared in like fashion, but with a final ATP concentration held constant at either 59.5, 29.75 or 14.875 μM, which was achieved by further dilution of the ATP solution with 0.1 M Tris, pH 8.
Firefly luciferase was diluted from a stock solution (2 μl of 14.7 mg/ml) with 0.1 M Tris, pH 8.0, containing 2 mg/ml bovine serum albumin. 10 μl aliquots containing 181 pg of enzyme were aliquoted into the wells of an opaque white 96-well microplate, after which 100 μl of the reaction mixtures with varying DTT concentrations were added. The plate was immediately placed into an Orion Luminometer, and light output from the wells was measured with sequential plate reading cycles, each cycle allowing the wells of the plate to be read with a time interval of approximately 2.25 minutes.
FIGS. 10 and 11 illustrate the results of this experiment. FIG. 10 illustrates the results obtained where the final ATP concentration of the reaction mixture was 238 μM, and FIG. 11 illustrates the results obtained where the final ATP concentration of the reaction mixture was 30 μM. Both graphs relate the observed RLU at each reading cycle expressed as a relative percentage of the signal obtained with the well receiving no DTT supplementation at the first reading cycle, with this signal being assigned 100%.

[4] = target: T1, firefly luciferase; assay: Firefly luciferase reaction with TCEP concentration series (Example 1); settings: for light output as % of the original signal: 96 mM TCEP
Experimental: A common firefly luciferase reaction mix was prepared by combining stock solutions of Tris/Mg buffer, D-luciferin, and ATP. A 900 μl aliquot of this mix consisted of 720 μl of 0.1 M Tris, 10 mM MgCl2, pH 8.0, 150 μl of 10 mM D-luciferin in 0.1 M Tris, pH 8.0, and 30 μl of 50 mM ATP in 0.1 M Tris, pH 8.0. A series of buffered TCEP preparations were prepared from a neutral pH, 0.5 M TCEP solution (Pierce Chemical Company Product No. 77720) by dilutions with 0.1 M Tris, pH 8.0, as necessary for a TCEP concentration series of 300, 150, 75, 37.5, 18.75, 9.38, 4.69, and 0 mM TCEP. 450 μl of each TCEP concentration were then added separately to 900 μl aliquots of the previously prepared mixture, followed by a final addition of 50 μl of 0.1 M Tris, pH 8.0, to each solution for a final volume of 1.4 ml. The final TCEP concentrations were, therefore, approximately 96, 48, 24, 12, 6, 3, 1.5, and 0 mM and the final Mg, luciferin, and ATP concentrations were 5.14, 1.07, and 1.07 mM, respectively.
Firefly luciferase was diluted from a stock solution (2 μl of 14.7 mg/ml) with 0.1 M Tris, pH 8.0, containing 2 mg/ml bovine serum albumin. 10 μl aliquots containing 181 pg of enzyme were aliquoted into the wells of an opaque white 96-well microplate, after which 125 μl of the reaction mixtures with varying TCEP concentrations were added. The plate was immediately placed into an Orion Luminometer (Berthold Detection Systems), and light output from the plate wells was measured for 15 sequential plate reading cycles, each cycle allowing the wells of the plate to be read with a time interval of approximately 2 minutes.

[5] = target: T1, firefly luciferase; assay: Firefly luciferase reaction with TCEP series plus 5 mM DTT (Example 2)
Experimental: In this experiment, final TCEP concentration was varied from 0-96 mM in the reaction mixture, with the reaction mixture also containing a final concentration of DTT of 5 mM. The conditions for this experiment were identical to that shown in Example 1, but with substitution of the final addition of 50 μl of 0.1 M Tris, pH 8.0, to each solution with a final addition of 50 μl of 50 mM DTT stock solution prepared in 0.1 M Tris, pH 8.0. This experiment was also conducted simultaneously and in the same microwell plate as the experiment of Example 1.

[6] = target: T2, Renilla luciferase (Renilla reniformis, UniProt P27652); assay: Renilla luciferase assay with or without TCEP (Example 6); settings: 33.3 μl of 0.5 M TCEP added to 466.7 μl coelenterazine assay mixture
T2 construct: purchased Chemicon 4400
T2 sequence (P27652 1-311): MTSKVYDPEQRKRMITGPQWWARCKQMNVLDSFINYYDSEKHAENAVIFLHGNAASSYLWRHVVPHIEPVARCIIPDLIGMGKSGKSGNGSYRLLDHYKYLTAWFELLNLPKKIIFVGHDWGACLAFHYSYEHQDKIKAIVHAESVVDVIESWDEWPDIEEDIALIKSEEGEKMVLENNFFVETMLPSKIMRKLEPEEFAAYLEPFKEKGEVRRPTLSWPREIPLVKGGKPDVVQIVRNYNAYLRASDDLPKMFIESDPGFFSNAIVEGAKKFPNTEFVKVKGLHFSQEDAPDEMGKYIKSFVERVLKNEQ
Experimental: In order to ascertain whether or not TCEP would interfere with a Renilla assay, an experiment was conducted utilizing a Renilla assay mixture, with or without TCEP supplementation. A Renilla assay mixture was prepared by combining 480 μl of 0.1 M Tris, 10 mM MgCl2, 1 mM EDTA, pH 8.0, with 437.7 μl of 0.1 M Tris, pH 8.0, and 16.7 μl of a coelenterazine stock solution (59 μM coelenterazine in denatured ethanol prepared from Molecular Probes Catalog number C-6777). This solution was split into 2 aliquots of 466.7 μl, and one aliquot received 33.3 μl of 0.5 M TCEP and the other aliquot received 33.3 μl 0.1 M Tris, pH 8.0.
Renilla luciferase purchased from Chemicon (Catalog number 4400) was diluted with 1 ml phosphate-buffered saline (10 mM sodium phosphate, 150 mM NaCl, pH 7.2) and stored frozen at −80° C. in 10 μl aliquots, each aliquot containing 100 ng enzyme. An aliquot was removed and diluted with 0.1 M Tris, pH 8.0, for a concentration series of 166, 55, 18.5, and 0 pg/10 μl. 10 μl of each enzyme concentration were pipetted in duplicate to the wells of a white opaque 96-well microplate, and 100 μl of either of the TCEP containing solution or the solution without TCEP was pipetted into the wells to initiate the reaction. The plate was immediately placed into an Orion Luminometer, and light output from the wells was measured with sequential plate reading cycles.

T1 sequence (P08659 whole entry): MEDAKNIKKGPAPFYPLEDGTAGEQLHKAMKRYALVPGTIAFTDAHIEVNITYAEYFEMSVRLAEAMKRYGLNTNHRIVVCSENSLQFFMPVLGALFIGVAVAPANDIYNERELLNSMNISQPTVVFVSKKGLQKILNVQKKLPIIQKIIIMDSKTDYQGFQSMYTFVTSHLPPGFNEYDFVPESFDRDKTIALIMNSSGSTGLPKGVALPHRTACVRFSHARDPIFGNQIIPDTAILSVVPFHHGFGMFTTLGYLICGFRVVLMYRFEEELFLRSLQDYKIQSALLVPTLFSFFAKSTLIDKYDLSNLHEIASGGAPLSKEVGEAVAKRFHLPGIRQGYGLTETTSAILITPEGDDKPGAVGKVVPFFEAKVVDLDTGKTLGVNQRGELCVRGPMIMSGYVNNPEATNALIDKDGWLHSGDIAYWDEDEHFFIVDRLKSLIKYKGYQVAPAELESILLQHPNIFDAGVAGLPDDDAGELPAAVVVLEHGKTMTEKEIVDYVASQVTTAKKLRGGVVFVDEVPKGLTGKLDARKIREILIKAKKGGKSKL

| SMILES | initial light output compared to the no addition control [1] | RLUs on inclusion of DTT in the TCEP reaction mixture [2] | increase of initial RLU during the first cycle vs no DTT ([3]; 10 mM DTT, 30 μM ATP) | increase of initial RLU during the first cycle vs no DTT ([3]; 20 mM DTT, 238 μM ATP) | less light output after 11.5 minutes compared to the initial reading ([3]; 20 mM DTT, 250 μM ATP) [%] | light output as % of the original signal ([4]; fourth reading cycle) [%] | light output as % of the original signal ([4]; last reading cycle) [%] | initially observed light output compared to the control reaction (no TCEP) ([4]; TCEP 1.5, 3 and 6 mM) | originally observed signal retained at the last reading cycle ([4]; TCEP 1.5-96 mM, 15th reading cycle, about 2 min per cycle, 181 pg enzyme, control lost >90%) [%] | RLU at the fifteenth reading cycle compared to control with DTT but without TCEP ([5]; 1.5-24 mM TCEP + 5 mM DTT) | initial RLU compared to the control reaction (DTT without TCEP) ([5]; 1.5 or 3 mM TCEP, 5 mM DTT) | retention of originally observed light output at last reading cycle compared to control ([5]; all TCEP concentrations (1.5-96 mM), 5 mM DTT) | signal decrease from first reading cycle to 11 minutes 34 seconds later ([3]; 30 μM ATP) | signal decrease from first reading cycle to 11 minutes 34 seconds later ([3]; 250 μM ATP) | reduction of background (no added enzyme) compared to absence of TCEP [6] [%] |
| --- | --- | --- | --- | --- | --- | --- | --- | --- | --- | --- | --- | --- | --- | --- | --- |
| O[C@H](CS)[C@H](O)CS (racemic) [DTT, dithiothreitol] | increased | elevated | about 8% | about 34% | 8.5 |  |  |  |  |  |  |  |  |  |  |
| CC(C)(COP(=O)(O)OP(=O)(O)OC[C@H]1O[C@@H](n2cnc3c(N)ncnc32)[C@H](O)[C@@H]1OP(=O)(O)O)[C@@H](O)C(=O)NCCC(=O)NCCS [CoA, Coenzyme A] | increased |  |  |  |  |  |  |  |  |  |  |  |  |  |  |
| O=C(O)CCP(CCC(=O)O)CCC(=O)O [TCEP, Tris(2-carboxyethyl) phosphine] |  |  |  |  |  | 49 | 32 | significantly higher | 32 to 78 | greater RLU | greater | greater retention | about 6% | about 6% | 50 |
